Values of other authors, collected in patent US20190069585A1, “Compositions of micronutrients and phytochemicals for optimal human health” (priority 2017, published 2019).

Details: consumed orally by humans

plasma levels of glutathione: do not significantly increase
Compound: N[C@@H](CCC(=O)N[C@@H](CS)C(=O)NCC(=O)O)C(=O)O [glutathione]
